Test results reported in patent publication US4742053A, “3-Isoquinoliniomethyl cephalosporin derivatives” (Banyu Pharmaceutical Co., Ltd., priority 1984, dated 1988).
Converted amounts (≈) assume the structure as drawn. Read-outs that look alike come from different tables or passages of the source.

How the values were obtained:
Assay in all cases: MIC by agar plate dilution method
Assay type in all cases: cell-based
P. mirabilis JY10 = conditions: Proteus mirabilis; P. mirabilis JY10; 10^6 CFU/ml; read-out: Minimum Inhibitory Concentration
Procedure: (§1) The minimum inhibitory concentrations (MIC: μg/ml) of the compounds of the present invention against various microorganisms were measured by an agar plate dilution method (inoculum size: 10^6 CFU/ml) by using Sensitivity Disk Agar (Nissui) in comparison with Cefotaxime and Ceftazidime as comparative compounds.
(§2) Minimum Inhibitory Concentration (μg/ml; 10^6 CFU/ml)

P. vulgaris No. 33 = conditions: Proteus vulgaris
Procedure: as §1, §2

K. pneumoniae No. 42 = conditions: Klebsiella pneumoniae; K. pneumoniae No. 42; 10^6 CFU/ml; read-out: Minimum Inhibitory Concentration
Procedure: as §1, §2

C. freundii No. 7 = conditions: Citrobacter freundii; C. freundii No. 7; 10^6 CFU/ml; read-out: Minimum Inhibitory Concentration
Procedure: as §1, §2

S. marcescens No. 16-2 = conditions: Serratia marcescens, NO.162; S. marcescens No. 16-2; 10^6 CFU/ml; read-out: Minimum Inhibitory Concentration
Procedure: as §1, §2

E. coli NIHJJC-2 = conditions: Escherichia coli, NIHJJC2, E. coli NIHJJC-2; 10^6 CFU/ml; read-out: Minimum Inhibitory Concentration
Procedure: as §1, §2

E. cloaceae Nek 39 = conditions: E. cloaceae Nek 39; 10^6 CFU/ml; read-out: Minimum Inhibitory Concentration
Procedure: as §1, §2

S. aureus JS-1 = conditions: Staphylococcus aureus, JS1; S. aureus JS-1; 10^6 CFU/ml; read-out: Minimum Inhibitory Concentration
Procedure: as §1, §2

E. coli CSH = conditions: Escherichia coli, 10^6 CFU/ml, read-out: Minimum Inhibitory Concentration
Procedure: as §1, §2

P. aeruginosa AKR17 = conditions: Pseudomonas aeruginosa, AKR17, P. aeruginosa AKR17; 10^6 CFU/ml; read-out: Minimum Inhibitory Concentration
Procedure: as §1, §2

P. aeruginosa AK109 = conditions: Pseudomonas aeruginosa, AK109, P. aeruginosa AK109; 10^6 CFU/ml; read-out: Minimum Inhibitory Concentration
Procedure: as §1, §2

P. vulgaris OB1043 = conditions: Proteus vulgaris, OB1043, P. vulgaris OB1043; 10^6 CFU/ml; read-out: Minimum Inhibitory Concentration
Procedure: as §1, §2

P. cepacia 23 = conditions: Burkholderia cepacia; P. cepacia 23; 10^6 CFU/ml; read-out: Minimum Inhibitory Concentration
Procedure: as §1, §2

E. coli ML1410/Rte16 = conditions: Escherichia coli, ML1410/RTE16, read-out: Minimum Inhibitory Concentration, E. coli ML1410/Rte16; 10^6 CFU/ml
Procedure: as §1, §2

A. calcoaceticus No. 14 = conditions: Acinetobacter calcoaceticus, NO.14, A. calcoaceticus No. 14; 10^6 CFU/ml; read-out: Minimum Inhibitory Concentration
Procedure: as §1, §2

S. aureus NIHJJC-1 = conditions: Staphylococcus aureus, NIHJJC1, S. aureus NIHJJC-1; 10^6 CFU/ml; read-out: Minimum Inhibitory Concentration
Procedure: as §1, §2

E. coli W3630/Rms213 = conditions: Escherichia coli, W3630/RMS213, read-out: Minimum Inhibitory Concentration, E. coli W3630/Rms213; 10^6 CFU/ml
Procedure: as §1, §2

E. coli CSH2 = conditions: Escherichia coli, 10^6 CFU/ml, read-out: Minimum Inhibitory Concentration
Procedure: as §1, §2

P. maltophilia IID 1275 = conditions: Stenotrophomonas maltophilia, IID1275; P. maltophilia IID 1275; 10^6 CFU/ml; read-out: Minimum Inhibitory Concentration
Procedure: as §1, §2

E. coli W3630/Rms212 = conditions: Escherichia coli, W3630/RMS212, read-out: Minimum Inhibitory Concentration, E. coli W3630/Rms212; 10^6 CFU/ml
Procedure: as §1, §2

E. coli C/Rms149 = conditions: Escherichia coli, read-out: Minimum Inhibitory Concentration, E. coli C/Rms149; 10^6 CFU/ml
Procedure: as §1, §2

[1] = NO.33, read-out: Minimum Inhibitory Concentration

| SMILES | MIC (P. mirabilis JY10) | MIC (K. pneumoniae No. 42) | MIC (C. freundii No. 7) | MIC (S. marcescens No. 16-2) | MIC (E. coli NIHJJC-2) | MIC (E. cloaceae Nek 39) | MIC (S. aureus JS-1) | MIC (E. coli CSH) | MIC (P. aeruginosa AKR17) | MIC (P. aeruginosa AK109) | MIC (P. vulgaris OB1043) | MIC (P. cepacia 23) | MIC (E. coli ML1410/Rte16) | MIC (A. calcoaceticus No. 14) | MIC (S. aureus NIHJJC-1) | MIC (E. coli W3630/Rms213) | MIC (E. coli CSH2) | MIC (P. maltophilia IID 1275) | MIC (E. coli W3630/Rms212) | MIC (E. coli C/Rms149) | further results |
| --- | --- | --- | --- | --- | --- | --- | --- | --- | --- | --- | --- | --- | --- | --- | --- | --- | --- | --- | --- | --- | --- |
| C[N+]1(CC2=C(C(=O)[O-])N3C(=O)C(NC(=O)C(=NOC4(C(=O)O)CC4)c4csc(N)n4)C3SC2)CCc2cc(O)c(O)cc2C1 (stereo not drawn) [Ex. 17-E, 7-[(Z)-2-(2-aminothiazol-4-yl)-2-(1-carboxy-1-cyclopropoxyimino)acetamido]-3-(6,7-dihydroxy-2-methyl-1,2,3,4-tetrahydro-2-isoquinolinium)methyl-3-cephem-4-carboxylate] | ≤ 0.05 µg/mL | ≤ 0.05 µg/mL | 1.56 µg/mL (≈ 2.42 µM) | 0.39 µg/mL (≈ 0.605 µM) | ≤ 0.05 µg/mL | ≤ 0.05 µg/mL | > 25 µg/mL | ≤ 0.05 µg/mL | 0.1 µg/mL (≈ 0.155 µM) | ≤ 0.05 µg/mL | ≤ 0.05 µg/mL | ≤ 0.05 µg/mL | ≤ 0.05 µg/mL | 0.1 µg/mL (≈ 0.155 µM) | 12.5 µg/mL (≈ 19.4 µM) | ≤ 0.05 µg/mL | ≤ 0.05 µg/mL | 1.56 µg/mL (≈ 2.42 µM) | ≤ 0.05 µg/mL | ≤ 0.05 µg/mL | MIC (P. vulgaris No. 33; [1]): ≤ 0.05 µg/mL |
| C[N+]1(CC2=C(C(=O)[O-])N3C(=O)C(NC(=O)C(=NOC4(C(=O)O)CCCC4)c4csc(N)n4)C3SC2)CCc2cc(O)c(O)cc2C1 (stereo not drawn) [Ex. 18-G, 7-[(Z)-2-(2-aminothiazol-4-yl)-2-(1-carboxy-1 cyclopentyloxyimino)acetamido]-3-(6,7-dihydroxy-2-methyl-1,2,3,4-tetrahydro-2-isoquinolinium)methyl-3-cephem-4-carboxylate] | 6.25 µg/mL (≈ 9.29 µM) | 1.56 µg/mL (≈ 2.32 µM) | 0.78 µg/mL (≈ 1.16 µM) | 12.5 µg/mL (≈ 18.6 µM) | 0.39 µg/mL (≈ 0.58 µM) | 0.1 µg/mL (≈ 0.149 µM) | > 100 µg/mL | 0.78 µg/mL (≈ 1.16 µM) | 0.78 µg/mL (≈ 1.16 µM) | 0.2 µg/mL (≈ 0.297 µM) | 1.56 µg/mL (≈ 2.32 µM) | 0.2 µg/mL (≈ 0.297 µM) | 0.2 µg/mL (≈ 0.297 µM) | 3.12 µg/mL (≈ 4.64 µM) | 25 µg/mL (≈ 37.2 µM) | 0.78 µg/mL (≈ 1.16 µM) | 0.78 µg/mL (≈ 1.16 µM) | 100 µg/mL (≈ 149 µM) | 0.39 µg/mL (≈ 0.58 µM) | 0.78 µg/mL (≈ 1.16 µM) | MIC (P. vulgaris No. 33; P. vulgaris No. 33, 10^6 CFU/ml, read-out: Minimum Inhibitory Concentration): 6.25 µg/mL (≈ 9.29 µM) |
| C[N+]1(CC2=C(C(=O)[O-])N3C(=O)C(NC(=O)C(=NOC4(C(=O)O)CCC4)c4csc(N)n4)C3SC2)CCc2cc(O)c(O)cc2C1 (stereo not drawn) [Ex. 19, 7-[(Z)-2-(2-aminothiazol-4-yl)-2-(1-carboxy-1-cyclobutoxyimiino)acetamide]-3-(6,7-dihydroxy-2-methyl-1,2,3,4-tetrahydro2-isoquinolinium)methyl-3-cephem-4-carboxylate] | 0.1 µg/mL (≈ 0.152 µM) | 0.05 µg/mL (≈ 0.0759 µM) | 0.78 µg/mL (≈ 1.18 µM) | 0.39 µg/mL (≈ 0.592 µM) | 0.05 µg/mL (≈ 0.0759 µM) | 0.1 µg/mL (≈ 0.152 µM) | 100 µg/mL (≈ 152 µM) | 0.05 µg/mL (≈ 0.0759 µM) | 0.1 µg/mL (≈ 0.152 µM) | 0.025 µg/mL (≈ 0.038 µM) | 0.05 µg/mL (≈ 0.0759 µM) | 0.0125 µg/mL (≈ 0.019 µM) | 0.025 µg/mL (≈ 0.038 µM) | 0.2 µg/mL (≈ 0.304 µM) | 25 µg/mL (≈ 38 µM) | 0.025 µg/mL (≈ 0.038 µM) | 0.05 µg/mL (≈ 0.0759 µM) | 3.12 µg/mL (≈ 4.74 µM) | 0.025 µg/mL (≈ 0.038 µM) | 0.025 µg/mL (≈ 0.038 µM) | MIC (P. vulgaris No. 33; [1]): 0.05 µg/mL (≈ 0.0759 µM) |
